In the NIST ThermoML archive (doi:10.1016/j.jct.2017.07.004):

Assay: xn = mol fraction of the nth substance listed
Details: 100 kPa, Liquid; for viscosity: Concentric cylinders viscometry; for mass density: Vibrating tube method

CCC=O [propanal] + CCCC(C)O
Details	mass density [kg/m3]	viscosity [mPa·s]
293.15 K, x1 = 0.0809	811	3.75
293.15 K, x1 = 0.1599	813.1	3.51
293.15 K, x1 = 0.2402	814.7	3.25
293.15 K, x1 = 0.35	816.4	2.87
293.15 K, x1 = 0.44	817	2.54
293.15 K, x1 = 0.5599	816.7	2.08
293.15 K, x1 = 0.65	815.8	1.73
293.15 K, x1 = 0.74	814.1	1.38
293.15 K, x1 = 0.85	810.6	0.94
293.15 K, x1 = 0.94	806.5	0.57
293.15 K, x1 = 1	802.4	0.34
298.15 K, x1 = 0.0809	806.6	3.11
298.15 K, x1 = 0.1599	808	2.91
298.15 K, x1 = 0.2402	809.2	2.71
298.15 K, x1 = 0.35	809.9	2.42
298.15 K, x1 = 0.44	810.2	2.15
298.15 K, x1 = 0.5599	809.5	1.78
298.15 K, x1 = 0.65	808.4	1.49
298.15 K, x1 = 0.74	806.6	1.2
298.15 K, x1 = 0.85	803.4	0.83
298.15 K, x1 = 0.94	799.8	0.52
298.15 K, x1 = 1	796.2	0.33
303.15 K, x1 = 0.0809	802.1	2.64
303.15 K, x1 = 0.1599	803.2	2.47
303.15 K, x1 = 0.2402	804	2.29
303.15 K, x1 = 0.35	804.5	2.04
303.15 K, x1 = 0.44	804.4	1.82
303.15 K, x1 = 0.5599	803.5	1.52
303.15 K, x1 = 0.65	802.2	1.29
303.15 K, x1 = 0.74	800.4	1.04
303.15 K, x1 = 0.85	797.1	0.73
303.15 K, x1 = 0.94	793.6	0.47
303.15 K, x1 = 1	790.3	0.31
308.15 K, x1 = 0.0809	797.7	2.24
308.15 K, x1 = 0.1599	798.5	2.11
308.15 K, x1 = 0.2402	798.9	1.96
308.15 K, x1 = 0.35	799	1.74
308.15 K, x1 = 0.44	798.7	1.55
308.15 K, x1 = 0.5599	797.5	1.29
308.15 K, x1 = 0.65	796.1	1.1
308.15 K, x1 = 0.74	794.2	0.89
308.15 K, x1 = 0.85	791	0.64
308.15 K, x1 = 0.94	787.6	0.43
308.15 K, x1 = 1	784.5	0.3
313.15 K, x1 = 0.0809	793.1	1.88
313.15 K, x1 = 0.1599	793.6	1.76
313.15 K, x1 = 0.2402	793.9	1.63
313.15 K, x1 = 0.35	793.8	1.45
313.15 K, x1 = 0.44	793.3	1.3
313.15 K, x1 = 0.5599	792	1.09
313.15 K, x1 = 0.65	790.5	0.92
313.15 K, x1 = 0.74	788.5	0.75
313.15 K, x1 = 0.85	785.3	0.56
313.15 K, x1 = 0.94	781.9	0.39
313.15 K, x1 = 1	779	0.28
318.15 K, x1 = 0.0809	788.6	1.55
318.15 K, x1 = 0.1599	788.9	1.45
318.15 K, x1 = 0.2402	789	1.34
318.15 K, x1 = 0.35	788.7	1.19
318.15 K, x1 = 0.44	788.1	1.07
318.15 K, x1 = 0.5599	786.5	0.9
318.15 K, x1 = 0.65	785	0.77
318.15 K, x1 = 0.74	782.9	0.64
318.15 K, x1 = 0.85	779.6	0.49
318.15 K, x1 = 0.94	776.2	0.35
318.15 K, x1 = 1	773.5	0.27
323.15 K, x1 = 0.0809	783.9	1.29
323.15 K, x1 = 0.1599	783.9	1.2
323.15 K, x1 = 0.2402	783.5	1.1
323.15 K, x1 = 0.35	782.7	0.97
323.15 K, x1 = 0.44	781.8	0.87
323.15 K, x1 = 0.5599	780.1	0.74
323.15 K, x1 = 0.65	778.4	0.64
323.15 K, x1 = 0.74	776.4	0.54
323.15 K, x1 = 0.85	773.4	0.42
323.15 K, x1 = 0.94	770.6	0.32
323.15 K, x1 = 1	768.2	0.25
